We go through two molecules from ChEMBL document CHEMBL1152103, “U-87947E, a protein quinolone antibacterial agent incorporating a bicyclo[1.1.1]pent-1-yl (BCP) subunit” (1993).

Assay type in all cases: functional
Test [1] concerns Enterococcus faecalis. The test is described as follows: The compound was tested for its antibacterial activity against Enterococcus faecalis (10 strains).
In test [2] the test system is Escherichia coli. The test can be described thus: The compound was tested for its antibacterial activity against Escherichia coli (21 strains).
Test [3] relates to Staphylococcus aureus. The test can be described thus: The compound was tested for its antibacterial activity against Staphylococcus aureus, ciprofloxacin resistant (14 strains).
Test [4] has as its system Streptococcus pneumoniae. The test can be described thus: The compound was tested for its antibacterial activity against Streptococcus pneumoniae (10 strains), expressed as MIC90.
Test [5] relates to Haemophilus influenzae. The test can be described thus: The compound was tested for its antibacterial activity against Haemophilus influenzae (10 strains).
Test [6] relates to Bacteroides fragilis. The test is described as follows: The compound was tested for its antibacterial activity against Bacteroides fragilis (12 strains).
Test [7] concerns Streptococcus pyogenes. The test is described as follows: The compound was tested for its antibacterial activity against Streptococcus pyogenes (10 strains).
Test [8] has as its system Pseudomonas aeruginosa. The test can be described thus: The compound was tested for its antibacterial activity against Pseudomonas aeruginosa (20 strains).
The subject of test [9] is Staphylococcus aureus. The test is described as follows: The compound was tested for its antibacterial activity against Staphylococcus aureus (12 strains).

In brackets after ≈: the same amount, converted by molar mass.

On to `CS(=O)(=O)O.C[C@H]1CN(c2c(F)cc3c(=O)c(C(=O)O)cn(C45CC(C4)C5)c3c2F)C[C@H]1CN`, for which the MIC90 in [1] was 0.25 µg/mL; in [2], 0.125 µg/mL; in test [3], 0.5 µg/mL; in test [4], 0.125 µg/mL; in test [5], 0.06 µg/mL; in [6], 1 µg/mL. Also, the MIC90 in test [7] is 0.125 µg/mL; in test [8], 8 µg/mL; in test [9], 0.125 µg/mL.
Turning to `O=C(O)c1cn(C2CC2)c2cc(N3CCNCC3)c(F)cc2c1=O` [CIPROFLOXACIN], the MIC90 was 2 µg/mL (≈ 6.04 µM) in [1]; 0.03 µg/mL (≈ 0.0905 µM) in test [2]; over 16 µg/mL in test [3]; 1 µg/mL (≈ 3.02 µM) in test [4]; 0.015 µg/mL (≈ 0.0453 µM) in test [5]; 8 µg/mL (≈ 24.1 µM) in test [6]. Further, the values for the MIC90 in [7], in test [8] and in [9] were 0.5 µg/mL (≈ 1.51 µM), 2 µg/mL (≈ 6.04 µM) and 1 µg/mL (≈ 3.02 µM), respectively.
